Reference: US8765779B2, “Tricyclic derivatives and their pharmaceutical use and compositions” (Cephalon, Inc., priority 2009, dated 2014)
Counter-ions that a name gives are not always drawn.

These compounds were tested against T1, human 5-HT6 receptor (Homo sapiens, UniProt P50406) (assay: Human 5-HT6 Receptor Binding Assay ([3H]LSD displacement, scintillation beads)). Settings: membranes of CHO-K1 cells with recombinant human 5-HT6, 4 nM [3H]LSD; Table 1, class symbols; read-out: h5-HT6 (Ki).
T1 construct: host or cells: CHO-K1 cells, stably transfected; membranes prepared in house
T1 sequence (P50406 whole entry): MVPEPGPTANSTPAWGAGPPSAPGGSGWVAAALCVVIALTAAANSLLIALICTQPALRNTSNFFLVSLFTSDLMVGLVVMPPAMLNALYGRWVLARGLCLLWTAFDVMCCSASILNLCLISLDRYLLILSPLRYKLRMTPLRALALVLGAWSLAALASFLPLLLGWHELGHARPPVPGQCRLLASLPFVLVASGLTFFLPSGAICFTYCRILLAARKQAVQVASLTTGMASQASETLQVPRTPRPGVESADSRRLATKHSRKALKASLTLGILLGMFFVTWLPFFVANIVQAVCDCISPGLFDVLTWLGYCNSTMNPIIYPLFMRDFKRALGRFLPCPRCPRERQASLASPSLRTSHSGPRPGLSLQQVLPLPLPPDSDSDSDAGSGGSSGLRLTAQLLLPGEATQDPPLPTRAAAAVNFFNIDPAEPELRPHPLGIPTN

SMILES	Ki [µM]
CC12CCNCC1Oc1ccc(S(=O)(=O)c3ccncc3)cc12 (racemic) [Example 13, 4a-methyl-6-(pyridin-4-ylsulfonyl)-1,2,3,4,4a,9a-hexahydro[1]benzofuro[2,3-c]pyridine]	> 1
O=S(=O)(c1ccc2c3c(oc2c1)CNCC3)c1cccnc1Cl [Example 436]	< 0.5
O=S(=O)(c1cc(Cl)cc(Cl)c1)c1ccc2c3c(oc2c1)CNCC3 [Example 211, 7-[(3,5-dichlorophenyl)sulfonyl]-1,2,3,4-tetrahydro[1]benzofuro[2,3-c]pyridine]	< 0.5
CC1OCCC12NCCc1c2oc2cc(S(=O)(=O)c3cccc(F)c3)ccc12 (single isomer, unassigned) [Example 58, 7-[(3-Fluorophenyl)sulfonyl]-2′-methyl-3,4,4′,5′-tetrahydro-2H-spiro[1-benzofuro[2,3-c]pyridine-1,3′-furan]]	< 0.5
O=S(=O)(NC1Cc2ccccc2C1)c1ccc2c(c1)C1CCNCC1O2 (centres unmarked) [Example 857]	> 1
COc1c(F)cc(F)cc1S(=O)(=O)c1ccc2c(c1)OC1CNCCC21 (centres unmarked) [Example 463]	< 0.5
Cc1c(S(=O)(=O)Oc2ccc3c(c2)OC2CNCCC32)sc2ccc(Cl)cc12 (centres unmarked) [Example 687]	< 0.5
COc1cccc(S(=O)(=O)Oc2ccc3c(c2)OC2CNCCC32)c1 (centres unmarked) [Example 651]	< 0.5
O=S(=O)(c1cccc(F)c1)c1ccc2c(c1)OC1CNCCC21 (centres unmarked) [Example 117]	< 0.5
O=S(=O)(Oc1ccc2c(c1)C1CCNCC1O2)c1ccc(F)cc1 (centres unmarked) [Example 702]	> 1
Cc1ccc(C)c(S(=O)(=O)Oc2ccc3c(c2)C2CCNCC2O3)c1 (centres unmarked) [Example 704]	< 0.5
COc1c(F)cc(F)cc1S(=O)(=O)c1ccc2c(c1)OC1CNCCC21 (centres unmarked) [Example 458]	> 1
O=S(=O)(c1cccc(OC(F)(F)F)c1)c1ccc2c3c(oc2c1)C1(CCOCC1)NCC3 [Example 300, 7-{[3-(trifluoromethoxy)phenyl]sulfo-nyl}-2′,3,3′,4,5′,6′-hexahydro-2H-spiro[1-benzofuro[2,3-c]pyridine-1,4′-pyran]]	< 0.5
CC1(C)NCCc2c1oc1cc(S(=O)(=O)c3c[nH]c(=O)c(C(F)(F)F)c3)ccc21 [Example 377]	> 1
CC1(C)NCCc2c1oc1cc(S(=O)(=O)c3cc[nH]c(=O)c3)ccc21 [Example 366]	< 0.5
O=S(=O)(c1cccc(Cl)c1)c1ccc2c3c(oc2c1)CN(CCc1ccccc1)CC3 [Example 602]	< 0.5
CC12CCNCC1Oc1ccc(OS(=O)(=O)c3cccc4ccccc34)cc12 (centres unmarked) [Example 768]	0.5 to 1
O=S(=O)(c1ccc2c3c(oc2c1)CNCC3)c1cc(Cl)ccc1Cl [Example 215, 7-[(2,5-dichlorophenyl)sulfonyl]-1,2,3,4-tetrahydro[1]benzofuro[2,3-c]pyridine]	< 0.5
O=S(=O)(c1cccc(F)c1)c1ccc2oc3c(c2c1)CCNC3 [Example 244, 6-[(3-fluorophenyl)sulfonyl]-1,2,3,4-tetrahydro[1]benzofuro[2,3-c]pyridine]	< 0.5
CC1NCCc2c1oc1ccc(S(=O)(=O)c3cccc(C(F)(F)F)c3)cc21 (centres unmarked) [Example 282]	< 0.5
CC(C)Oc1ncccc1S(=O)(=O)c1ccc2oc3c(c2c1)CCNC3 [Example 449]	< 0.5
O=S(=O)(Cc1ccccc1)Nc1ccc2c(c1)C1CCNCC1O2 (centres unmarked) [Example 831]	> 1
O=S(=O)(Nc1ccc2c(c1)C1CCNCC1O2)c1ccc(Cl)cc1 (centres unmarked) [Example 823]	< 0.5

SMILES	Ki [µM]
O=S(=O)(Cc1ccc(C(F)(F)F)cc1)Oc1ccc2c(c1)C1CCNCC1O2 (centres unmarked) [Example 751]	> 1
O=S(=O)(Oc1ccc2c(c1)C1CCNCC1O2)c1ccc(OC(F)(F)F)cc1 (centres unmarked) [Example 744]	> 1
Cc1c(S(=O)(=O)Oc2ccc3c(c2)C2(C)CCNCC2O3)sc2ccc(Cl)cc12 (centres unmarked) [Example 783]	0.5 to 1
COC(=O)c1cc(Cl)cc(S(=O)(=O)c2ccc3c(c2)OC2CNCCC32)c1 (centres unmarked) [Example 387]	> 1
O=S(=O)(Nc1cccc(Cl)c1)c1ccc2c(c1)C1CCNCC1O2 (centres unmarked) [Example 853]	0.5 to 1
[O-][S+](c1ccc2c3c(oc2c1)CNCC3)c1cc(F)ccc1F (centres unmarked) [Example 222]	< 0.5
O=S(=O)(c1cccc(Br)c1)c1ccc2c(c1)OC1CNCCC21 (centres unmarked) [Example 133]	< 0.5
CC1(C)CNC2(CCOC2)c2oc3cc([S+]([O-])c4cncc(Cl)c4)ccc3c21 (centres unmarked) [Example 455]	> 1
CC(=O)NCCC1NCCc2c1oc1cc(S(=O)(=O)c3cccc(F)c3)ccc21 (racemic) [Example 536, N-(2-{7-[(3-fluorophenyl)sulfonyl]-1,2,3,4-tetrahydro[1]benzofuro[2,3-c]pyridin-1-yl}ethyl)acetamide]	< 0.5
CC(C)C1NCCc2c1oc1ccc(S(=O)(=O)c3cccc(F)c3)cc21 (centres unmarked) [Example 512]	< 0.5
CC(=O)NCCC1NCCc2c1oc1cc(S(=O)(=O)c3cccc(Cl)c3)ccc21 (racemic) [Example 540, N-(2-{7-[(3-chlorophenyl)sulfonyl]-1,2,3,4-tetrahydro[1]benzofuro[2,3-c]pyridin-1-yl}ethyl)acetamide]	< 0.5
COc1cc(OC)cc(S(=O)(=O)c2ccc3c(c2)OC2CNCCC32C)c1 (centres unmarked) [Example 490]	< 0.5
O=S(=O)(c1ccc2c(c1)OC1CNCCC21)c1cccc(Cl)c1F (centres unmarked) [Example 422]	< 0.5
O=S(=O)(Oc1ccc2c(c1)OC1CNCCC21)c1ccc(-n2cccn2)cc1 (centres unmarked) [Example 671]	< 0.5
O=S(=O)(c1cccc(OCC2CC2)c1)c1ccc2c(c1)OC1CNCCC21 (centres unmarked) [Example 555]	< 0.5
Cc1ccc(S(=O)(=O)c2ccc3c(c2)C2CCNCC2O3)cc1 (centres unmarked) [Example 174]	> 1
CC(C)Oc1cc(F)cc(S(=O)(=O)c2ccc3c(c2)OC2CNCCC32)c1 (single isomer, unassigned) [Example 364, 7-(3-Fluoro-5-isopropoxy-benzenesulfonyl)-1,2,3,4,4a,9a-hexahydro-benzo[4,5]furo[2,3-c]pyridine hydrochloride]	< 0.5
O=S1(=O)CCC2(CC1)NCCc1c2oc2cc(S(=O)(=O)c3cccc(F)c3)ccc12 [Example 38, 7-[(3-fluorophenyl)sulfonyl]-2′,3,3′,4,5′,6′-hexahydro-2H-spiro[1-benzofuro[2,3-c]pyridine-1,4′-thiopyran] 1′,1′-dioxide]	< 0.5
O=S(=O)(Oc1ccc2c(c1)OC1CN(CCc3ccccc3)CCC21)c1ccc(Cl)cc1 (centres unmarked) [Example 813]	> 1
O=S(=O)(c1ccccc1)c1ccc2c(c1)C1CCNCC1O2 (centres unmarked) [Example 181, 6-(phenylsulfonyl)-1,2,3,4,4a,9a-hexahydro[1]benzofuro[2,3-c]pyridine]	> 1
COc1cccc(S(=O)(=O)c2ccc3c(c2)OC2CNCCC32)c1F (centres unmarked) [Example 416]	< 0.5
Cc1c(Cl)cccc1S(=O)(=O)Oc1ccc2c(c1)C1CCNCC1O2 (centres unmarked) [Example 717]	< 0.5
N#Cc1ccc(S(=O)(=O)c2ccc3c(c2)OC2CNCCC32)cc1 (centres unmarked) [Example 139]	> 1

SMILES	Ki [µM]
O=S(=O)(Oc1ccc2c(c1)C1CCNCC1O2)c1cccc2cnccc12 (centres unmarked) [Example 745]	> 1
CN(c1ccc2c(c1)OC1CNCCC21)S(=O)(=O)c1c(Cl)nc2sccn12 (centres unmarked) [Example 835, 6-Chloro-N-[1,2,3,4,4a,9a-hexahydro[1]benzofuro[2,3-c]pyridin-7-yl]-N-methylimidazo[2,1-b][1,3]thiazole-5-sulfonamide]	< 0.5
O=S(=O)(c1cccc(OCC(F)F)c1)c1ccc2c(c1)OC1CNCCC21 (centres unmarked) [Example 578]	< 0.5
O=S(=O)(Oc1ccc2c(c1)C1CCNCC1O2)c1ccccn1 (centres unmarked) [Example 753]	> 1
CC(C)Oc1cc(OC(CO)CCl)cc(S(=O)(=O)c2ccc3c(c2)OC2CNCCC32)c1 (centres unmarked) [Example 589]	< 0.5
CC12CCNCC1Oc1ccc(OS(=O)(=O)c3cc4ccccc4o3)cc12 (centres unmarked) [Example 765]	0.5 to 1
Cc1cccc(S(=O)(=O)c2ccc3c(c2)OC2CNCCC32)n1 (centres unmarked) [Example 328]	< 0.5
Cc1ccc(S(=O)(=O)Oc2ccc3c(c2)OC2CNCCC32)cc1F (centres unmarked) [Example 652]	0.5 to 1
CC1NCCc2c1oc1ccc(S(=O)(=O)c3cccc(F)c3)cc21 (centres unmarked) [Example 283]	< 0.5
O=S(=O)(c1cccc(F)c1)c1ccc2oc3c(c2c1)CCNC3C1CCCC1 (centres unmarked) [Example 513]	< 0.5
CC(=O)Nc1ccc(S(=O)(=O)c2ccc3oc4c(c3c2)CCNC4)cc1 [Example 272]	0.5 to 1
O=S(=O)(c1cc(F)cc(Cl)c1)c1ccc2oc3c(c2c1)CCNC3 [Example 255]	< 0.5
Cn1cnc(COc2cccc(S(=O)(=O)c3ccc4c(c3)OC3CNCCC43)c2)n1 (centres unmarked) [Example 560]	> 1
O=S(=O)(Oc1ccc2c(c1)OC1CNCCC21)c1csc2ccccc12 (centres unmarked) [Example 665]	< 0.5
COc1cc2c(cc1OC)CN(S(=O)(=O)c1ccc3c(c1)C1CCNCC1O3)CC2 (centres unmarked) [Example 859]	> 1
O=S(=O)(c1ccccc1)c1ccc2c3c([nH]c2c1)C1(CCOC1)NCC3 (stereo not drawn) [Example 546, 7-(Phenylsulfonyl)-2,3,4,4′,5′,9-hexahydrospiro[beta-carboline-1,3′-furan]trifluoroacetate]	< 0.5
O=S(=O)(c1cncc(Cl)c1)c1ccc2c(c1)OC1CNCCC21 (centres unmarked) [Example 392]	< 0.5
Cc1noc(C)c1S(=O)(=O)Oc1ccc2c(c1)OC1CNCCC21 (centres unmarked) [Example 646]	0.5 to 1
CN(C)c1cccc(S(=O)(=O)c2ccc3oc4c(c3c2)CCNC4)c1 [Example 355]	> 1
COc1ccc(S(=O)(=O)c2ccc3oc4c(c3c2)CCNC4)cc1 [Example 245]	< 0.5
O=S(=O)(c1ccc(F)c(Cl)c1)c1ccc2c(c1)OC1CNCCC21 (centres unmarked) [Example 127]	< 0.5

Same assay, conditions: membranes of CHO-K1 cells with recombinant human 5-HT6, 4 nM [3H]LSD; specific data; read-out: h5-HT6 (Ki)

SMILES	Ki [µM]
O=S(=O)(c1cccc(F)c1)c1ccc2c3c([nH]c2c1)C(C(F)(F)F)NCC3 (stereo not drawn) [Example 527, 7-[(3-fluorophenyl)sulfonyl]-1-(trifluoromethyl)-2,3,4,9-tetrahydro-1H-beta-carboline]	0.093
